From patent publication US6664251B2, “Benzothiazine derivative” (Daiichi Suntory Pharma Co., Ltd., priority 1993, dated 2003)

Columns and labels:
serotonin-2 receptor = assay: Anti-serotonin action (anti-5-HT action): contraction of isolated superior mesenteric artery induced by serotonin; conditions: contraction induced by 10^−5 M serotonin (5-HT) taken as 100%, Hartley male guinea pig superior mesenteric artery; for Anti 5-HT action (% of Control) 10^−6 M: test drug 10^−6 M; for Anti 5-HT action (% of Control) 10^−7 M: test drug 10^−7 M
Description: (1) Anti-Serotonin Action (Anti-5-HT Action)
A preparation cut in a helical form was suspended under 0.3 g load in a Magnus cylinder filled with the Tyrode solution which had been aerated with a gas mixture of 95% O2+5% CO2 and maintained at 37° C. Using an isometric transducer (“UL-10”, manufactured by SHINKOH K.K.) and a pressure preamplifier (“DSA-605A”, manufactured by SHINKOH K.K.), variations in tension were measured. The isometric tensions were recorded on a pen-writing recorder (“VP-6537A”, manufactured by NATIONAL K.K.). Taking the contraction induced by 10^−5 M serotonin (5-HT) as 100%, the percent contractions in the presence of each test drug at 10^−7 and 10^−6 M were determined as anti-5-HT action.

α1 receptor = assay: Anti-α1 action: tonic contraction of isolated thoracic aorta induced by norepinephrine; conditions: tonic contraction induced by 10^−5 M norepinephrine (NE) taken as 100%, Hartley male guinea pig thoracic aorta; for Anti α1 action (% of Control) 10^−7 M: test drug 10^−7 M; for Anti α1 action (% of Control) 10^−8 M: test drug 10^−8 M
Description: The thoracic aorta of each Hartley male guinea pig (body weight: 300-500 g) was excised. A preparation cut in a helical form was suspended under 1 g load in a Magnus cylinder filled with the Tyrode solution which had been aerated with a gas mixture of 95% O2+5% CO2 and maintained at 37° C. Using an isometric transducer (“TB-612J”, manufactured by NIHON KOHDEN) and a pressure preamplifier (“AP-620G”, manufactured by NIHON KOHDEN), variations in tension were measured. The isometric tensions were recorded on a thermal pen-writing recorder (“WT-647G”, manufactured by NIHON KOHDEN).
Taking the tonic contraction induced by 10^−5 M norepinephrine (NE) as 100%, the percent contractions upon addition of each test drug at 10^−8 and 10^−7 M were determined as anti-α1 action.

| SMILES | Anti 5-HT action (% of Control) 10^−6 M (serotonin-2 receptor) | Anti 5-HT action (% of Control) 10^−7 M (serotonin-2 receptor) | Anti α1 action (% of Control) 10^−7 M (α1 receptor) | Anti α1 action (% of Control) 10^−8 M (α1 receptor) |
| --- | --- | --- | --- | --- |
| O=S1(=O)c2ccccc2C2(CN1CCCN1CCN(c3ccccc3F)CC1)OCCO2 [compound 35, 2-[3-[4-(2-fluorophenyl)piperazin-1-yl]propyl]-3,4-dihydro-2H-1,2-benzothiazin-4-one 1,1-dioxide ethylene acetal] | 7.5 % of Control | 38.3 % of Control | 89.3 % of Control | 99.0 % of Control |
| O=S1(=O)c2cccc(Cl)c2C2(CN1CCCN1CCN(c3ccc(F)cc3)CC1)OCCO2 [Compound No. 113, 5-chloro-2-[3-[4-(4-fluorophenyl)piperazin-1-yl]propyl]-3,4-dihydro-2H-1,2-benzothiazin-4-one 1,1-dioxide ethylene acetal] |  | 49.5 % of Control | 89.3 % of Control | 98.3 % of Control |
| O=S1(=O)c2ccccc2C2(CN1CCCN1CCN(c3ccc(F)cc3)CC1)OCCCO2 [Compound No. 64, 2-[3-[4-(4-fluorophenyl)piperazin-1-yl]propyl]-3,4-dihydro-2H-1,2-benzothiazine-4-spiro-2′-(1′,3′-dioxane) 1,1-dioxide] | 13.8 % of Control | 24.8 % of Control | 84.9 % of Control | 97.3 % of Control |
| COc1cccc2c1C1(CN(CCCN3CCN(c4ccc(O)cc4)CC3)S2(=O)=O)OCCO1 [Compound No. 111, 2-[3-[4-(4-hydroxyphenyl)piperazin-1-yl]propyl]-5-methoxy-3,4-dihydro-2H-1,2-benzothiazin-4-one 1,1-dioxide ethylene acetal] |  | 10.9 % of Control | 98.6 % of Control | 100.9 % of Control |
| COc1cccc2c1C1(CN(CCN3CCN(c4ccc(F)cc4)CC3)S2(=O)=O)OCCO1 [Compound No. 109, 2-[2-[4-(4-fluorophenyl)piperazin-1-yl]ethyl]-5-methoxy-3,4-dihydro-2H-1,2-benzothiazin-4-one 1,1-dioxide ethylene acetal] |  | 10.5 % of Control | 96.1 % of Control | 99.3 % of Control |
| O=S1(=O)c2ccccc2C2(CN1CCCN1CCN(c3ccc(F)cc3)CC1)SCCS2 [Compound No. 66, 2-[3-[4-(4-fluorophenyl)piperazin-1-yl]propyl]-3,4-dihydro-2H-1,2-benzothiazine-4-spiro-2′-(1′,3′-dithiolan) 1,1-dioxide] | 2.8 % of Control | 66.6 % of Control | 86.5 % of Control | 100 % of Control |
| O=S1(=O)c2ccccc2C(O)CN1CCCN1CCN(c2ccc(F)cc2)CC1 (stereo not shown) [Compound No. 77, 2-[3-[4-(4-fluorophenyl)piperazin-1-yl]propyl]-4-hydroxy-3,4-dihydro-2H-1,2-benzothiazine 1,1-dioxide] | 18.2 % of Control | 45.7 % of Control | 79.6 % of Control | 100 % of Control |
| O=C(c1ccc(F)cc1)C1CCN(CCCN2CC(O)c3ccccc3S2(=O)=O)CC1 (stereo not shown) [Compound No. 76, 2-[3-[4-(4-fluorobenzoyl)piperidino]-propyl]-4-hydroxy-3,4-dihydro-2H-1,2-benzothiazine 1,1-dioxide] | 21.7 % of Control | 53.9 % of Control | 88.2 % of Control | 100 % of Control |
| O=S1(=O)c2ccc(Cl)cc2C2(CN1CCCN1CCN(c3ccc(F)cc3)CC1)OCCO2 [Compound No. 117, 6-chloro-2-[3-[4-(4-fluorophenyl)piperazin-1-yl]propyl]-3,4-dihydro-2H-1,2-benzothiazin-4-one 1,1-dioxide ethylene acetal] | 23.6 % of Control | 48.0 % of Control | 80.2 % of Control | 97.1 % of Control |
| COc1ccc2c(c1)C1(CN(CCCN3CCC(C(=O)c4ccc(F)cc4)CC3)S2(=O)=O)OCCO1 [Compound No. 116, 2-[3-[4-(4-fluorobenzoyl)piperidino]-propyl]-6-methoxy-3,4-dihydro-2H-1,2-benzothiazin-4-one 1,1-dioxide ethylene acetal] | 13.9 % of Control | 40.2 % of Control | 88.3 % of Control | 100.7 % of Control |
| COC1(OC)CN(CCCN2CCN(c3ccc(F)cc3)CC2)S(=O)(=O)c2ccccc21 [Compound No. 55, 2-[3-[4-(4-fluorophenyl)piperazin-1-yl]propyl]-4,4-dimethoxy-3,4-dihydro-2H-1,2-benzothiazine 1,1-dioxide] | 7.4 % of Control | 23.4 % of Control | 89.2 % of Control | 100 % of Control |
| COc1ccc2c(c1)S(=O)(=O)N(CCCN1CCC(C(=O)c3ccc(F)cc3)CC1)CC21OCCO1 [Compound No. 120, 2-[3-[4-(4-fluorobenzoyl)piperidino]propyl]-7-methoxy-3,4-dihydro-2H-1,2-benzothiazin-4-one 1,1-dioxide ethylene acetal] | 20.3 % of Control | 51.6 % of Control | 71.6 % of Control | 93.2 % of Control |
| O=S1(=O)c2ccccc2C2(CN1CCCN1CCN(c3ccccn3)CC1)OCCO2 [Compound No. 46, 2-[3-[4-(2-pyridyl)piperazin-1-yl]-propyl]-3,4-dihydro-2H-1,2-benzothiazin-4-one 1,1-dioxide ethylene acetal] | 5.5 % of Control | 39.8 % of Control | 97.4 % of Control | 100 % of Control |
| COc1cccc2c1C1(CN(CCCN3CCN(c4ccc(F)cc4)CC3)S2(=O)=O)OCCO1 [Compound No. 110, 2-[3-[4-(4-fluorophenyl)piperazin-1-yl]propyl]-5-methoxy-3,4-dihydro-2H-1,2-benzothiazin-4-one 1,1-dioxide ethylene acetal] |  | 5.6 % of Control | 81.1 % of Control | 100 % of Control |
